Assay results as given in patent US10377774B2 (JINAN UNIVERSITY, priority 2013, dated 2019).
Where two headings read alike, the source gives them in different places. Marks after values point to notes of the source that are not given here.

Columns and labels:
[1] = system: LOVO xenografts; assay: LOVO xenografts in nude mice; type: in vivo; details: LOVO xenograft nude mice; for Anti-tumor rate (%) / Body weight (g) Post-dose / Tumor weight: 1 mg/kg; for Body weight (g) Pre-dose: before dosing
Summary of the method: (§1)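 Female BALB/nu/nu mice received 1×10^7 cells subcutaneously and were randomized at 70–100 mm^3, six per group. Compounds were given at 1 mg/kg i.p. every two days for 8 doses, with saline as control. Tumor volume was calculated as V=½(ab^2), and body weight was monitored.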

[2] = system: human umbilical vein endothelial cells HUVEC; assay: MTT cytotoxicity on normal cells, HUVEC; details: read-out: IC50, cytotoxicity on normal cell line; HUVEC, MTT assay
Method: (§5) Then, 100 μL of cells (cell concentration was 5×10^5/mL) were seeded into 96 wells plate. After 24 h incubation at 37° C. with 5% CO2, tested compounds were added (the control group without compound) for an additional 72 h incubation. After that, 30 μL of MTT [3-(4,5-Dimethylthiazol-2-yl)-2,5-diphenyltetrazolium bromide] solution (5 mg/mL) was added into each well and incubated for another 4 h at 37° C. and then the formazan crystals were solubilized with 100 μL DMSO. Finally, absorbance of each well was determined at 570 nm by a microplate reader (Thermo).
(§6) The standard curve was drew with compound concentrations as the abscissa and cell growth inhibition rates as the ordinate. The concentration required to inhibit cell growth by 50% (IC50) was calculated from survival curves.
(§7) Experimental method: In vitro cytotoxicities of vinca alkaloids, hydrazinolyzed vinca alkaloids and vinca alkaloid dipeptide derivatives on human normal liver cells LO2 and human umbilical vein endothelial cells HUVEC were detected according to the method of Example 2.

[3] = system: K562 xenografts; assay: K562 xenografts in nude mice; type: in vivo; details: K562 xenograft nude mice; for Anti-tumor rate (%) / Body weight (g) Post-dose / Tumor weight: 1 mg/kg; for Body weight (g) Pre-dose: before dosing
Summary of the method: as §1

[4] = system: doxorubicin-resistant human breast cancer cell lines MCF-7/ADR; assay: MTT cell growth inhibition, MCF-7/ADR; type: cell-based; details: MTT assay, 72 h, read-out: IC50, growth of tumor cell line
Description: (§8) Experimental method: Cell lines (human non-small-cell lung cancer cell line A549, human colon cancer cell line LOVO, human nasopharyngeal carcinoma cell line CNE-2, human liver cancer cell line HepG2, human cervical carcinoma cell line Hela, human breast cancer cell lines MCF-7 and MDA-MB-231, human gastric carcinoma cell line NCI-N87, human prostatic cancer cell lines PC-3 and DU145, human leukemia cell line K562, human melanoma cell line A375, human neuroblastoma cell line SH-SY5H, human promyelocytic leukemia cell line HL-60, 5-FU-resistant human hepatocellular carcinoma cell line BEL-7402/5-Fu, doxorubicin-resistant hepatocellular carcinoma cell line HepG2/ADM, doxorubicin-resistant human breast cancer cell lines MCF-7/ADR) at logarithmic phase were resuspended in RPMI 1640 medium (containing 10% fetal bovine serum, 100 U/mL penicillin-streptomycin). Then, 100 μL of cells (cell concentration was 5×10^5/mL) were seeded into 96 wells plate. After 24 h incubation at 37° C. with 5% CO2, tested compounds were added (the control group without compound) for an additional 72 h incubation. After that, 30 μL of MTT [3-(4,5-Dimethylthiazol-2-yl)-2,5-diphenyltetrazolium bromide] solution (5 mg/mL) was added into each well and incubated for another 4 h at 37° C. and then the formazan crystals were solubilized with 100 μL DMSO. Finally, absorbance of each well was determined at 570 nm by a microplate reader (Thermo).
(§9) The concentration required to inhibit cell growth by 50% (IC50) was calculated from survival curves.

[5] = system: human gastric carcinoma cell line NCI-N87; assay: MTT cell growth inhibition, NCI-N87; type: cell-based; details: NCI-N87, MTT assay, 72 h, read-out: IC50, growth of tumor cell line
Description: as §8, §9

[6] = system: 5-FU-resistant human hepatocellular carcinoma cell line BEL-7402/5-Fu; assay: MTT cell growth inhibition, BEL-7402/5-Fu; type: cell-based; details: MTT assay, 72 h, read-out: IC50, growth of tumor cell line
Description: as §8, §9

[7] = system: human nasopharyngeal carcinoma cell line CNE-2; assay: MTT cell growth inhibition, CNE-2; type: cell-based; details: CNE-2, MTT assay, 72 h, read-out: IC50, growth of tumor cell line
Description: as §8, §9

[8] = system: human promyelocytic leukemia cell line HL-60; assay: MTT cell growth inhibition, HL-60; type: cell-based; details: HL-60, MTT assay, 72 h, read-out: IC50, growth of tumor cell line
[9] = system: human breast cancer cell line MCF-7; assay: MTT cell growth inhibition, MCF-7; type: cell-based; details: MCF-7, MTT assay, 72 h, read-out: IC50, growth of tumor cell line
Description: as §8, §9

[10] = system: Kunming mice; assay: Acute toxicity test; type: in vivo; details: injected intraperitoneally
Method: (§2) Experimental method: Kunming mice were purchased from Guangdong Medical Experimental Animal Center, weighing 18-22 g, then randomly divided into several groups with 10 mice in each group. Different concentrations of VLB and vinca alkaloid dipeptide derivatives were injected intraperitoneally. Finally, the median lethal dose (LD50) was calculated according to the surviving animals.
(§3) LD50 was measured using the following formula:
(§4) LD50 (mg/kg)=The median lethal dose/body weight

[11] = system: human prostatic cancer cell line DU145; assay: MTT cell growth inhibition, DU-145; type: cell-based; details: DU-145, MTT assay, 72 h, read-out: IC50, growth of tumor cell line
[12] = system: human non-small-cell lung cancer cell line A549; assay: MTT cell growth inhibition, A549; type: cell-based; details: A549, MTT assay, 72 h, read-out: IC50, growth of tumor cell line
[13] = system: human normal liver cells LO2; assay: MTT cytotoxicity on normal cells, LO2; details: read-out: IC50, cytotoxicity on normal cell line; LO2, MTT assay
Method: as §5, §6, §7

[14] = system: human colon cancer cell line LOVO; assay: MTT cell growth inhibition, LOVO; type: cell-based; details: LOVO (FAPα positive), MTT assay, 72 h, read-out: IC50, growth of tumor cell line
Description: as §8, §9

[15] = system: HL-60 xenografts; assay: HL-60 xenografts in nude mice; type: in vivo; details: HL-60 xenograft nude mice; for Anti-tumor rate (%) / Body weight (g) Post-dose / Tumor weight: 1 mg/kg; for Body weight (g) Pre-dose: before dosing
Summary of the method: as §1

[16] = system: human prostatic cancer cell line PC-3; assay: MTT cell growth inhibition, PC-3; type: cell-based; details: PC-3, MTT assay, 72 h; read-out: IC50, growth of tumor cell line
Description: as §8, §9

[17] = system: HepG2 xenografts; assay: HepG2 xenografts in nude mice; type: in vivo; details: HepG2 xenograft nude mice; for Body weight (g) Pre-dose: before dosing
Summary of the method: as §1

[18] = system: doxorubicin-resistant hepatocellular carcinoma cell line HepG2/ADM; assay: MTT cell growth inhibition, HepG2/ADM; type: cell-based, human; details: MTT assay, 72 h, read-out: IC50, growth of tumor cell line
Description: as §8, §9

[19] = system: human leukemia cell line K562; assay: MTT cell growth inhibition, K562; type: cell-based; details: K562, MTT assay, 72 h, read-out: IC50, growth of tumor cell line
Description: as §8, §9

[20] = system: human breast cancer cell line MDA-MB-231; assay: MTT cell growth inhibition, MDA-MB-231; type: cell-based; details: MDA-MB-231, MTT assay, 72 h, read-out: IC50, growth of tumor cell line
Description: as §8, §9

[21] = system: human liver cancer cell line HepG2; assay: MTT cell growth inhibition, HepG2; type: cell-based; details: HepG2, MTT assay, 72 h, read-out: IC50, growth of tumor cell line
Description: as §8, §9

[22] = system: human melanoma cell line A375; assay: MTT cell growth inhibition, A375; type: cell-based; details: A375, MTT assay, 72 h, read-out: IC50, growth of tumor cell line
Description: as §8, §9

[23] = system: human cervical carcinoma cell line Hela; assay: MTT cell growth inhibition, Hela; type: cell-based; details: MTT assay, 72 h, read-out: IC50, growth of tumor cell line
Description: as §8, §9

[24] = system: MDA-MB-231 xenografts; assay: MDA-MB-231 xenografts in nude mice; type: in vivo, BALB/nu/nu mice; details: MDA-MB-231 xenograft nude mice; for Anti-tumor rate (%) / Body weight (g) Post-dose / Tumor weight: 1 mg/kg i.p. every two days, 8 administrations; for Body weight (g) Pre-dose: before dosing
Summary of the method: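 Female BALB/nu/nu mice bearing subcutaneous MDA-MB-231 tumours (1×10^7 cells; 70–100 mm^3 at randomisation), six per group. Compounds given at 1 mg/kg i.p. every two days for 8 doses versus saline. Tumour volume (V=½ab^2) and body weight tracked.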

[25] = system: human neuroblastoma cell line SH-SY5H; assay: MTT cell growth inhibition, SH-SY5H; type: cell-based; details: MTT assay, 72 h, read-out: IC50, growth of tumor cell line
Description: as §8, §9

[26] = MTT cytotoxicity on normal cells, HUVEC; details: human, HUVEC (human umbilical vein endothelial cells)
Method: as §5, §6, §7

[27] = Acute toxicity test; type: in vivo; details: mouse, in vivo, ip; Kunming mice, injected intraperitoneally; read-out: LD50 (median lethal dose)
Method: as §2, §3, §4

[28] = MTT cytotoxicity on normal cells, LO2; details: human, LO2 cells (human normal liver cells)
Method: as §5, §6, §7

For `CCC12C=CCN3CCC4(c5cc(C6(C(=O)OC)CC7CC(C(C)(F)F)CN(Cc8c6[nH]c6ccccc86)C7)c(OC)cc5N(C)C4C(O)(C(=O)NNC(=O)C4CCCN4C(=O)CNC(=O)OCc4ccccc4)C1O)C32` (centres unmarked) [BX-CCFN, Z-GP-NHNH-Vinflunine], the “Anti-tumor rate (%)” value [1] was 83.63** %, the “Body weight (g) Post-dose” value [1] was 24.5 ± 1.5 g and the “Tumor weight” value [1] was 0.47 ± 0.31 g. The “Body weight (g) Pre-dose” value [1] was 23.6 ± 1.3 g, the IC50 [2] was 270 ± 7.7 nM and the “Anti-tumor rate (%)” value [3] was 66.08** %. The “Body weight (g) Post-dose” value [3] was 23.0 ± 0.8 g, the “Tumor weight” value [3] was 0.57 ± 0.13 g and the “Body weight (g) Pre-dose” value [3] was 22.9 ± 1.3 g. It also gave an IC50 [4] of 908 ± 20.2 nM, an IC50 [5] of 430 ± 10.4 nM and an IC50 [6] of 390 ± 15.7 nM. The IC50 [7] was 309 ± 5.78 nM, the IC50 [8] was 726 ± 98.2 nM and the IC50 [9] was 606 ± 11.5 nM. For the same compound, the “LD50 (median lethal dose)” value [10] was 15 mg/kg, the IC50 [11] was 289 ± 28.8 nM and the IC50 [12] was 335 ± 7.31 nM. For the same compound, the IC50 [13] was 301 ± 14.3 nM, the IC50 [14] was 320 ± 8.51 nM and the “Anti-tumor rate (%)” value [15] was 70.68** %. The “Body weight (g) Post-dose” value [15] was 18.6 ± 1.4 g, the “Tumor weight” value [15] was 0.61 ± 0.35 g and the “Body weight (g) Pre-dose” value [15] was 18.7 ± 1.4 g. For the same compound, the IC50 [16] was 317 ± 31.3 nM, the “Anti-tumor rate (%)” value ([17]; 1 mg/kg) was 88.24** % and the “Body weight (g) Post-dose” value ([17]; 1 mg/kg) was 22.1 ± 1.2 g. For the same compound, the “Tumor weight” value ([17]; 1 mg/kg) was 0.30 ± 0.17 g, the “Body weight (g) Pre-dose” value [17] was 21.9 ± 1.3 g and the IC50 [18] was 604 ± 17.9 nM. The IC50 [19] was 229 ± 6.6 nM, the IC50 [20] was 614 ± 9.29 nM and the IC50 [21] was 299 ± 7.64 nM. For the same compound, the IC50 [22] was 528 ± 34.8 nM, the IC50 [23] was 430 ± 10.1 nM and the “Anti-tumor rate (%)” value [24] was 88.13** %. For the same compound, the “Body weight (g) Post-dose” value [24] was 20.6 ± 1.6 g, the “Tumor weight” value [24] was 0.31 ± 0.11 g and the “Body weight (g) Pre-dose” value [24] was 20.2 ± 0.7 g. The IC50 [25] was 459 ± 13.5 nM.
In the case of `CC[C@]1(O)C[C@@H]2CN(CCc3c([nH]c4ccccc34)[C@@](C(=O)OC)(c3cc4c(cc3OC)N(C)[C@H]3[C@@](O)(C(=O)OC)[C@H](OC(C)=O)[C@]5(CC)C=CCN6CC[C@]43[C@@H]65)C2)C1` [Vinblastine, reference compound], the “Anti-tumor rate (%)” value [1] is reported as 44.60* %, the “Body weight (g) Post-dose” value [1] is reported as 19.6 ± 1.5 g and the “Tumor weight” value [1] is reported as 1.59 ± 0.51 g. For the same compound, the “Body weight (g) Pre-dose” value [1] was 23.1 ± 1.4 g, the IC50 at 72 h [26] was 0.76 ± 0.13 nM and the “Anti-tumor rate (%)” value [3] was 49.81* %. The “Body weight (g) Post-dose” value [3] was 17.4 ± 0.4 g, the “Tumor weight” value [3] was 0.86 ± 0.10 g and the “Body weight (g) Pre-dose” value [3] was 21.9 ± 0.7 g. The IC50 ([5]; Homo sapiens) was 2.23 ± 0.43 nM, the IC50 ([6]; Homo sapiens, Bel7402/5-FU) was 25.8 ± 3.01 nM and the IC50 ([7]; Homo sapiens) was 1.03 ± 0.07 nM. The IC50 ([8]; Homo sapiens) was 5.21 ± 0.84 nM, the IC50 ([9]; Homo sapiens, MCF7) was 3.67 ± 1.34 nM and the LD50 [27] was 4 mg/kg. It also gave an IC50 ([11]; Homo sapiens) of 0.78 ± 0.31 nM, an IC50 ([12]; Homo sapiens) of 2.31 ± 0.13 nM and an IC50 at 72 h [28] of 0.34 ± 0.07 nM. The IC50 ([14]; Homo sapiens) was 1.2 ± 0.24 nM, the “Anti-tumor rate (%)” value [15] was 52.89** % and the “Body weight (g) Post-dose” value [15] was 16.2 ± 0.7 g. For the same compound, the “Tumor weight” value [15] was 0.98 ± 0.25 g, the “Body weight (g) Pre-dose” value [15] was 19.4 ± 1.0 g and the “Anti-tumor rate (%)” value ([17]; 1 mg/kg) was 42.75* %. The “Body weight (g) Post-dose” value ([17]; 1 mg/kg) was 18.2 ± 1.8 g, the “Body weight (g) Pre-dose” value [17] was 21.9 ± 0.7 g and the IC50 ([18]; Homo sapiens) was 10.1 ± 1.12 nM. For the same compound, the IC50 ([19]; Homo sapiens) was 0.72 ± 0.2 nM, the IC50 ([20]; Homo sapiens) was 0.81 ± 0.35 nM and the IC50 ([21]; Homo sapiens) was 3.07 ± 0.12 nM. The IC50 ([22]; Homo sapiens, A-375) was 3.24 ± 0.39 nM, the IC50 ([23]; Homo sapiens) was 4.34 ± 0.36 nM and the “Anti-tumor rate (%)” value [24] was 53.26** %. For the same compound, the “Body weight (g) Post-dose” value [24] was 18.3 ± 2.4 g, the “Tumor weight” value [24] was 1.22 ± 0.35 g and the “Body weight (g) Pre-dose” value [24] was 20.7 ± 1.4 g. It also gave an IC50 ([25]; Homo sapiens, Neuroblastoma cell) of 6.13 ± 0.51 nM.
